Experimental data: patent publication US20220119354A1, “DIAMINO-SUBSTITUTED PYRIDINES AND PYRIMIDINES AS HERBICIDES” (FMC Corporation, priority 2019, published 2022)

Tests used:
Assay type in all cases: in vivo
[1] = system: barnyardgrass (Echinochloa crus-galli); assay: Test A preemergence, barnyardgrass; settings: 0 to 100 scale; for Barnyardgrass plant response rating: 0 is no effect, 100 is complete control
From the text: (§1) Seeds of plant species selected from barnyardgrass (Echinochloa crus-galli), kochia (Kochia scoparia), ragweed (common ragweed, Ambrosia elatior), ryegrass, Italian (Lolium multiflorum), foxtail, giant (Setaria faberii), foxtail, green (Setaria viridis), and pigweed (Amaranthus retroflexus) were planted into a blend of loam soil and sand and treated preemergence with a directed soil spray using test chemicals formulated in a non-phytotoxic solvent mixture which included a surfactant.
(§2) At the same time, plants selected from these weed species and also wheat (Triticum aestivum), corn (Zea mays), blackgrass (Alopecurus myosuroides), and galium (catchweed bedstraw, Galium aparine) were planted in pots containing the same blend of loam soil and sand and treated with postemergence applications of test chemicals formulated in the same manner. Plants ranged in height from 2 to 10 cm and were in the one- to two-leaf stage for the postemergence treatment. Treated plants and untreated controls were maintained in a greenhouse for approximately 10 d, after which time all treated plants were compared to untreated controls and visually evaluated for injury. Plant response ratings, summarized in Table A, are based on a 0 to 100 scale where 0 is no effect and 100 is complete control. A dash (-) response means no test result.

[2] = system: ryegrass, Italian (Lolium multiflorum); assay: Test A postemergence, Italian ryegrass; settings: 0 to 100 scale
From the text: as §1, §2

[3] = system: kochia (Kochia scoparia); assay: Test A postemergence, kochia; settings: 0 to 100 scale
From the text: as §1, §2

[4] = system: ryegrass, Italian (Lolium multiflorum); assay: Test A preemergence, Italian ryegrass; settings: 0 to 100 scale; for Ryegrass, Italian plant response rating: 0 is no effect, 100 is complete control
From the text: as §1, §2

[5] = system: ragweed (common ragweed, Ambrosia elatior); assay: Test A postemergence, ragweed; settings: 0 to 100 scale
From the text: as §1, §2

[6] = system: sedge, umbrella (small-flower umbrella sedge, Cyperus difformis); assay: Test B flooded paddy test, umbrella sedge; settings: Flood, 250 g ai/ha, applied to paddy water, 2-leaf stage, visual evaluation after 13 to 15 d
Description: (§3) Plant species in the flooded paddy test selected from rice (Oryza sativa), sedge, umbrella (small-flower umbrella sedge, Cyperus difformis), ducksalad (Heteranthera limosa), and barnyardgrass (Echinochloa crus-galli) were grown to the 2-leaf stage for testing. At the time of treatment, test pots were flooded to 3 cm above the soil surface, treated by application of test compounds directly to the paddy water, and then maintained at that water depth for the duration of the test. Treated plants and controls were maintained in a greenhouse for 13 to 15 d, after which time all species were compared to controls and visually evaluated. Plant response ratings, summarized in Table B, are based on a scale of 0 to 100 where 0 is no effect and 100 is complete control. A dash (-) response means no test result.

[7] = system: ragweed (common ragweed, Ambrosia elatior); assay: Test A preemergence, ragweed; settings: 0 to 100 scale, 0 is no effect, 100 is complete control
From the text: as §1, §2

[8] = system: galium (catchweed bedstraw, Galium aparine); assay: Test A postemergence, galium; settings: 0 to 100 scale
From the text: as §1, §2

[9] = system: wheat (Triticum aestivum); assay: Test A postemergence, wheat; settings: 0 to 100 scale
From the text: as §1, §2

[10] = system: kochia (Kochia scoparia); assay: Test A preemergence, kochia; settings: 0 to 100 scale; for Kochia plant response rating: 0 is no effect, 100 is complete control
From the text: as §1, §2

[11] = system: rice (Oryza sativa); assay: Test B flooded paddy test, rice; settings: Flood, 250 g ai/ha, applied to paddy water, 2-leaf stage, visual evaluation after 13 to 15 d
Description: as §3

[12] = system: ducksalad (Heteranthera limosa); assay: Test B flooded paddy test, ducksalad; settings: Flood, 250 g ai/ha, applied to paddy water, 2-leaf stage, visual evaluation after 13 to 15 d
Description: as §3

[13] = system: blackgrass (Alopecurus myosuroides); assay: Test A postemergence, blackgrass; settings: 0 to 100 scale
From the text: as §1, §2

[14] = system: pigweed (Amaranthus retroflexus); assay: Test A postemergence, pigweed; settings: 0 to 100 scale
From the text: as §1, §2

[15] = system: foxtail, giant (Setaria faberii); assay: Test A preemergence, giant foxtail; settings: 0 to 100 scale; for Foxtail, Giant plant response rating: 0 is no effect, 100 is complete control
From the text: as §1, §2

[16] = system: barnyardgrass (Echinochloa crus-galli); assay: Test B flooded paddy test, barnyardgrass; settings: Flood, 250 g ai/ha, applied to paddy water, 2-leaf stage, visual evaluation after 13 to 15 d
Description: as §3

[17] = system: foxtail, giant (Setaria faberii); assay: Test A postemergence, giant foxtail; settings: 0 to 100 scale
From the text: as §1, §2

[18] = system: corn (Zea mays); assay: Test A postemergence, corn; settings: 0 to 100 scale
From the text: as §1, §2

[19] = system: pigweed (Amaranthus retroflexus); assay: Test A preemergence, pigweed; settings: 0 to 100 scale; for Pigweed plant response rating: 0 is no effect, 100 is complete control
From the text: as §1, §2

[20] = system: barnyardgrass (Echinochloa crus-galli); assay: Test A postemergence, barnyardgrass; settings: 0 to 100 scale
From the text: as §1, §2

[21] = 125 g ai/ha, 0 no effect, 100 complete control
[22] = 500 g ai/ha, 0 no effect, 100 complete control

Compound: Cc1ccc2c([C@H](Nc3ncc(C(F)(F)F)c(N)n3)C3CC3)coc2c1 [Compound 90]
- Barnyardgrass plant response rating ([1]; 125 g ai/ha): 0
- Barnyardgrass plant response rating ([1]; 500 g ai/ha): 80
- Plant response rating, Ryegrass, Italian [2, 21]: 30
- Plant response rating, Ryegrass, Italian [2, 22]: 40
- Plant response rating, Kochia [3, 21]: 20
- Plant response rating, Kochia [3, 22]: 90
- Ryegrass, Italian plant response rating ([4]; 125 g ai/ha): 30
- Ryegrass, Italian plant response rating ([4]; 500 g ai/ha): 50
- Plant response rating, Ragweed [5, 21]: 30
- Plant response rating, Ragweed [5, 22]: 70
- Plant response rating, Sedge, Umbrella (0 to 100 scale, 0 is no effect, 100 is complete control) [6]: 20
- Ragweed plant response rating ([7]; 125 g ai/ha): 50
- Ragweed plant response rating ([7]; 500 g ai/ha): 100
- Plant response rating, Galium [8, 21]: 40
- Plant response rating, Galium [8, 22]: 70
- Plant response rating, Wheat [9, 21]: 0
- Plant response rating, Wheat [9, 22]: 30
- Kochia plant response rating ([10]; 125 g ai/ha): 0
- Kochia plant response rating ([10]; 500 g ai/ha): 90
- Plant response rating, Rice (0 to 100 scale, 0 is no effect, 100 is complete control) [11]: 0
- Plant response rating, Ducksalad (0 to 100 scale, 0 is no effect, 100 is complete control) [12]: 25
- Plant response rating, Blackgrass [13, 21]: 0
- Plant response rating, Blackgrass [13, 22]: 60
- Plant response rating, Pigweed [14, 21]: 60
- Plant response rating, Pigweed [14, 22]: 100
- Foxtail, Giant plant response rating ([15]; 125 g ai/ha): 70
- Foxtail, Giant plant response rating ([15]; 500 g ai/ha): 100
- Plant response rating, Barnyardgrass (0 to 100 scale, 0 is no effect, 100 is complete control) [16]: 40
- Plant response rating, Foxtail, Giant [17, 21]: 0
- Plant response rating, Foxtail, Giant [17, 22]: 50
- Plant response rating, Corn [18, 21]: 0
- Plant response rating, Corn [18, 22]: 0
- Pigweed plant response rating ([19]; 125 g ai/ha): 70
- Pigweed plant response rating ([19]; 500 g ai/ha): 100

Compound: C[C@@H](Nc1ncc(C(F)(F)F)c(N)n1)c1cc2cc(F)c(F)cc2o1 [Compounds 30]
- Plant response rating, Barnyardgrass ([1]; 125 g ai/ha): 0
- Plant response rating, Barnyardgrass ([1]; 500 g ai/ha): 80
- Plant response rating, Ryegrass, Italian ([2]; 125 g ai/ha): 0
- Plant response rating, Ryegrass, Italian ([2]; 500 g ai/ha): 0
- Plant response rating, Kochia ([3]; 125 g ai/ha): 20
- Plant response rating, Kochia ([3]; 500 g ai/ha): 80
- Plant response rating, Barnyardgrass ([20]; 125 g ai/ha): 0
- Plant response rating, Barnyardgrass ([20]; 500 g ai/ha): 30
- Plant response rating, Ryegrass, Italian ([4]; 125 g ai/ha): 0
- Plant response rating, Ryegrass, Italian ([4]; 500 g ai/ha): 0
- Plant response rating, Ragweed ([5]; 125 g ai/ha): 20
- Plant response rating, Ragweed ([5]; 500 g ai/ha): 80
- Plant response rating, Sedge, Umbrella (0 to 100 scale, 0 is no effect, 100 is complete control) [6]: 80
- Plant response rating, Galium ([8]; 125 g ai/ha): 50
- Plant response rating, Galium ([8]; 500 g ai/ha): 60
- Plant response rating, Wheat ([9]; 125 g ai/ha): 0
- Plant response rating, Wheat ([9]; 500 g ai/ha): 0
- Plant response rating, Kochia ([10]; 125 g ai/ha): 0
- Plant response rating, Kochia ([10]; 500 g ai/ha): 30
- Plant response rating, Rice (0 to 100 scale, 0 is no effect, 100 is complete control) [11]: 0
- Plant response rating, Ducksalad (0 to 100 scale, 0 is no effect, 100 is complete control) [12]: 0
- Plant response rating, Blackgrass ([13]; 125 g ai/ha): 0
- Plant response rating, Blackgrass ([13]; 500 g ai/ha): 0
- Plant response rating, Pigweed ([14]; 125 g ai/ha): 100
- Plant response rating, Pigweed ([14]; 500 g ai/ha): 100
- Plant response rating, Foxtail, Giant ([15]; 125 g ai/ha): 0
- Plant response rating, Foxtail, Giant ([15]; 500 g ai/ha): 70
- Plant response rating, Barnyardgrass (0 to 100 scale, 0 is no effect, 100 is complete control) [16]: 0
- Plant response rating, Foxtail, Giant ([17]; 125 g ai/ha): 0
- Plant response rating, Foxtail, Giant ([17]; 500 g ai/ha): 30
- Plant response rating, Corn ([18]; 125 g ai/ha): 10
- Plant response rating, Corn ([18]; 500 g ai/ha): 0
- Plant response rating, Pigweed ([19]; 125 g ai/ha): 40
- Plant response rating, Pigweed ([19]; 500 g ai/ha): 100
